Where a name gives a salt, the structure may show the parent alone.
Assay: in vitro
Settings: rat, gh3-tre-luc cells

Row | SMILES | CC50 at 24 h (AC50 (uM) modified / 1000) | further results
1 | C=C(C#N)C(=O)OCC [Ethyl cyanoacrylate] | > 90 µM | –
2 | CCCCCCCCCC(=O)OCC [Ethyl decanoate] | > 90 µM | –
3 | CCCCCCCCCCCC(=O)OCC [Ethyl dodecanoate] | > 90 µM | –
4 | CCCCCCC(=O)OCC [Ethyl heptanoate] | > 90 µM | –
5 | CCCCCCCCCCCCCCCC(=O)OCC [Ethyl hexadecanoate] | > 90 µM | –
6 | CCCCCC(=O)OCC [Ethyl hexanoate] | > 90 µM | –
7 | CCOC(=O)CCc1ccccc1 [Ethyl hydrocinnamate] | > 90 µM | –
8 | CCOC(=O)CC(C)C [Ethyl isovalerate] | > 90 µM | –
9 | CCOC(=O)C(C)O (stereo not drawn) [Ethyl lactate] | > 90 µM | –
10 | CCOC(=O)CCC(C)=O [Ethyl levulinate] | > 90 µM | –
11 | CCCCC/C=C/C/C=C/CCCCCCCC(=O)OCC [Ethyl linoleate] | > 50 µM | –
12 | CC/C=C\C/C=C\C/C=C\CCCCCCCC(=O)OCC [Ethyl linolenate] | > 90 µM | –
13 | C=C(C)C(=O)OCC [Ethyl methacrylate] | > 100 µM | –
14 | CCOS(C)(=O)=O [Ethyl methanesulfonate] | > 90 µM | –
15 | CCOC(=O)C1OC1(C)c1ccccc1 (stereo not drawn) [Ethyl methylphenylglycidate] | – | CC50 at 24 h (AC50 (uM) modified / 1000, Tox21_110001=Tox21_201315, viability, 1 nM T3 present, 24 h): > 90 µM
16 | CCOC(=O)c1cccnc1 [Ethyl nicotinate] | > 50 µM | –
17 | CCON=O [Ethyl nitrite] | – | CC50 at 24 h (AC50 (uM) modified / 1000, Tox21_110001=Tox21_112368, viability, 1 nM T3 present, 24 h): > 50 µM
18 | CCCCCCCCC(=O)OCC [Ethyl nonanoate] | > 90 µM | –
19 | CCCCCCCCSCC [Ethyl octyl sulfide] | > 90 µM | –
20 | CCCCCCCC/C=C\CCCCCCCC(=O)OCC [Ethyl oleate] | > 90 µM | –
21 | CCOC(=O)Cc1ccccc1 [Ethyl phenylacetate] | – | CC50 at 24 h (AC50 (uM) modified / 1000, Tox21_110001=Tox21_300810, viability, 1 nM T3 present, 24 h): > 90 µM

Row | SMILES | CC50 at 24 h (AC50 (uM) modified / 1000) | further results
22 | CCOC(=O)COC(=O)c1ccccc1C(=O)OCC [Ethyl phthalyl ethyl glycolate] | > 90 µM | –
23 | CCOC(=O)CC [Ethyl propionate] | > 90 µM | –
24 | CCOC(=O)c1ccccc1O [Ethyl salicylate] | > 50 µM | –
25 | CCCCCCCCCCCCCC(=O)OCC [Ethyl tetradecanoate] | > 90 µM | –
26 | C=CCCCCCCCCC(=O)OCC [Ethyl undec-10-enoate] | > 90 µM | –
27 | C=CC(=O)CC [Ethyl vinyl ketone] | > 90 µM | –
28 | CCOC(=O)C(C)C(C)=O (stereo not drawn) [Ethyl-2-methyl acetoacetate] | > 90 µM | –
29 | CCN [Ethylammonium nitrate] | – | CC50 at 24 h (AC50 (uM) modified / 1000, Tox21_110001=Tox21_200578, viability, 1 nM T3 present, 24 h): > 90 µM
30 | CCc1ccccc1 [Ethylbenzene] | > 90 µM | –
31 | CCOCCOCC [Ethylene glycol diethyl ether] | > 100 µM | –
32 | C(COCC1CO1)OCC1CO1 (stereo not drawn) [Ethylene glycol diglycidyl ether] | > 90 µM | –
33 | C=C(C)C(=O)OCCOC(=O)C(=C)C [Ethylene glycol dimethacrylate] | > 90 µM | –
34 | COCCOC [Ethylene glycol dimethyl ether] | > 90 µM | –
35 | C=C(C)C(=O)OCCOc1ccccc1 [Ethylene glycol phenyl ether methacrylate] | > 90 µM | –
36 | OCCO [Ethylene glycol] | > 100 µM | –
37 | C1CS1 [Ethylene sulfide] | – | CC50 at 24 h (AC50 (uM) modified / 1000, Tox21_110001=Tox21_202917, viability, 1 nM T3 present, 24 h): > 90 µM
38 | NCCN [Ethylenediamine] | > 90 µM | –
39 | CC[C@]1(O)CC[C@H]2[C@@H]3CCC4=CCCC[C@@H]4[C@H]3CC[C@@]21C [Ethylestrenol] | > 50 µM | –
40 | CCOc1ccc2c3c1O[C@H]1[C@@H](O)C=C[C@H]4[C@@H](C2)N(C)CC[C@@]341 [Ethylmorphine] | – | CC50 at 24 h (AC50 (uM) modified / 1000, Tox21_110001=Tox21_112610, viability, 1 nM T3 present, 24 h): > 50 µM
41 | CCOC(=O)c1ccc(O)cc1 [Ethylparaben] | > 90 µM | –
42 | CCC(C(=O)NC(N)=O)c1ccccc1 (stereo not drawn) [Ethylphenylacetylurea] | > 90 µM | –

Row | SMILES | CC50 at 24 h (AC50 (uM) modified / 1000) | further results
43 | CCOC(=O)C(C)(C)C [Ethylpivalate] | > 90 µM | –
44 | CC[Si](OC(C)=O)(OC(C)=O)OC(C)=O [Ethyltriacetoxysilane] | > 90 µM | –
45 | CCO[Si](CC)(OCC)OCC [Ethyltriethoxysilane] | > 90 µM | –
46 | CCCN(CC)C(CC)C(=O)Nc1c(C)cccc1C (stereo not drawn) [Etidocaine] | > 50 µM | –
47 | CC(O)(P(=O)(O)O)P(=O)(O)O [Etidronic acid] | > 90 µM | –
48 | CCc1cccc(CC)c1NC(=O)CN(CC(=O)O)CC(=O)O [Etifenin] | > 20 µM | –
49 | CCNCC(O)c1cccc(O)c1 (stereo not drawn) [Etilefrine hydrochloride] | > 20 µM | –
50 | CCC(C(N)=O)N1CCCC1=O (stereo not drawn) [Etiracetam] | > 50 µM | –
51 | CCc1cc2c(s1)-n1c(C)nnc1CN=C2c1ccccc1Cl [Etizolam] | – | CC50 at 24 h (AC50 (uM) modified / 1000, Tox21_110001=Tox21_112931, viability, 1 nM T3 present, 24 h): > 50 µM
52 | CCc1cccc2c3c([nH]c12)C(CC)(CC(=O)O)OCC3 (stereo not drawn) [Etodolac] | > 90 µM | –
53 | O=C(OCCOCCO)c1ccccc1Nc1cccc(C(F)(F)F)c1 [Etofenamate] | > 20 µM | –
54 | CCOc1ccc(C(C)(C)COCc2cccc(Oc3ccccc3)c2)cc1 [Etofenprox] | > 90 µM | –
55 | Cn1c(=O)c2c(ncn2CCOC(=O)C(C)(C)Oc2ccc(Cl)cc2)n(C)c1=O [Etofylline clofibrate] | > 50 µM | –
56 | Cn1c(=O)c2c(ncn2CCO)n(C)c1=O [Etofylline] | > 50 µM | –
57 | CCOC(=O)c1cncn1[C@H](C)c1ccccc1 [Etomidate] | – | CC50 at 24 h (AC50 (uM) modified / 1000, Tox21_110001=Tox21_110628, viability, 1 nM T3 present, 24 h): > 20 µM
58 | CCN1C(=O)c2ccccc2C1Nc1ccc(OCCN2CCCCC2)cc1 (stereo not drawn) [Etomidoline] | > 50 µM | –
59 | C#C[C@]1(O)CC[C@H]2[C@@H]3CCC4=CC(=O)CC[C@@H]4[C@H]3C(=C)C[C@@]21CC [Etonogestrel] | > 50 µM | –
60 | COc1cc([C@@H]2c3cc4c(cc3[C@@H](O[C@@H]3O[C@@H]5CO[C@@H](C)O[C@H]5[C@H](O)[C@H]3O)[C@H]3COC(=O)[C@H]23)OCO4)cc(OC)c1OP(=O)(O)O [Etoposide phosphate] | > 50 µM | –
61 | Cc1ccc(-c2ncc(Cl)cc2-c2ccc(S(C)(=O)=O)cc2)cn1 [Etoricoxib] | > 50 µM | –
62 | CCOc1cc(C(C)(C)C)ccc1C1COC(c2c(F)cccc2F)=N1 (stereo not drawn) [Etoxazole] | 17.5 µM | –
63 | CCOC(=O)/C=C(C)/C=C/C=C(C)/C=C/c1c(C)cc(OC)c(C)c1C [Etretinate] | > 50 µM | –

Row | SMILES | CC50 at 24 h (AC50 (uM) modified / 1000) | further results
64 | CCC(N)Cc1c[nH]c2ccccc12 (stereo not drawn) [Etryptamine acetate] | – | CC50 at 24 h (AC50 (uM) modified / 1000, Tox21_110001=Tox21_112820, viability, 1 nM T3 present, 24 h): > 100 µM
65 | CCC(N)Cc1c[nH]c2ccccc12 (stereo not drawn) [Etryptamine] | – | CC50 at 24 h (AC50 (uM) modified / 1000, Tox21_110001=Tox21_112618, viability, 1 nM T3 present, 24 h): > 50 µM
66 | CCc1ccc2c(c1)N(CC(C)CN(C)C)c1ccccc1S2 (stereo not drawn) [Etymemazine hydrochloride] | 9.18 µM | –
67 | C=CCc1ccc(O)c(OC)c1 [Eugenol] | > 90 µM | –
68 | C=CCc1ccc(OC(=O)Cc2ccccc2)c(OC)c1 [Eugenyl phenylacetate] | – | CC50 at 24 h (AC50 (uM) modified / 1000, Tox21_110001=Tox21_301203, viability, 1 nM T3 present, 24 h): > 90 µM
69 | CO[C@H]1C[C@@H]2CC[C@@H](C)[C@@](O)(O2)C(=O)C(=O)N2CCCC[C@H]2C(=O)O[C@H]([C@H](C)C[C@@H]2CC[C@@H](OCCO)[C@H](OC)C2)CC(=O)[C@H](C)/C=C(\C)[C@@H](O)[C@@H](OC)C(=O)[C@H](C)C[C@H](C)/C=C/C=C/C=C/1C [Everolimus] | 0.00998 µM | –
70 | CCCCCCOc1ccccc1C(N)=O [Exalamide] | > 50 µM | –
71 | C=C1C[C@@H]2[C@H](CC[C@]3(C)C(=O)CC[C@@H]23)[C@@]2(C)C=CC(=O)C=C12 [Exemestane] | > 50 µM | –
72 | O=C1[C@H](CC[C@H](O)c2ccc(F)cc2)[C@@H](c2ccc(O)cc2)N1c1ccc(F)cc1 [Ezetimibe] | > 50 µM | –
73 | CCN(Cc1cccc(S(=O)(=O)O)c1)c1ccc(C(=C2C=CC(=[N+](CC)Cc3cccc(S(=O)(=O)O)c3)C=C2)c2ccccc2S(=O)(=O)[O-])cc1 [FD&C Blue No. 1] | 50.7 µM | –
74 | CCN(Cc1cccc(S(=O)(=O)O)c1)c1ccc(C(=C2C=CC(=[N+](CC)Cc3cccc(S(=O)(=O)[O-])c3)C=C2)c2ccccc2)cc1 [FD&C Green No. 1] | > 70 µM | –
75 | CCN(Cc1cccc(S(=O)(=O)O)c1)c1ccc(C(=C2C=CC(=[N+](CC)Cc3cccc(S(=O)(=O)O)c3)C=C2)c2ccc(O)cc2S(=O)(=O)[O-])cc1 [FD&C Green No. 3] | 41.3 µM | –
76 | Cc1cc(C)c(S(=O)(=O)O)cc1N=Nc1cc(S(=O)(=O)O)c2ccccc2c1O [FD&C Red 4] | 33.6 µM | –
77 | CCCCc1nc2cccnc2n1Cc1ccc(-c2ccccc2-c2nnn[nH]2)cc1 [FR130739] | 55.3 µM | –
78 | Cc1ccc2oc(CN(Cc3ccccc3)C(=O)Nc3c(F)cc(F)cc3F)c(-c3ccc(Cl)cc3)c2c1 [FR145237] | > 80 µM | –
79 | CC(C)(C)c1csc(-c2cc3cc(OCc4ccccc4CC(=O)O)ccc3o2)n1 [FR150011] | 79.7 µM | –
80 | Cc1oc2c(NC(=O)c3c(Cl)cccc3Cl)cccc2c1C(C)(C)O [FR167356] | 19.6 µM | –
81 | CC/C(=C\C(=N/O)C(N)=O)C(C)[N+](=O)[O-] (stereo not drawn) [FR900409] | > 90 µM | –
82 | N#Cc1ccc(C2CCCc3cncn32)cc1 (stereo not drawn) [Fadrozole hydrochloride] | > 40 µM | –
83 | CN1CCC(Nc2ncc3ncnc(Nc4ccc(F)c(Cl)c4)c3n2)CC1 [Falnidamol dihydrochloride] | 11.7 µM | –
84 | CC(=O)OCC(CCn1cnc2cnc(N)nc21)COC(C)=O [Famciclovir] | > 50 µM | –

Source: paper PMC6792352, “Limited Chemical Structural Diversity Found to Modulate Thyroid Hormone Receptor in the Tox21 Chemical Library” (Environmental Health Perspectives, 2019)
